In one test the target is BIR2 domain of XIAP (Homo sapiens (Human), UniProt P98170, C202A/C213G). In words: TR-FRET assay for BIR2: inhibition of binding of XIAP BIR2 domain to Peptide A (SMAC-derived peptide). The note with it: 6× His-tagged BIR2 domain (aa 124-240 of XIAP) 10 nM, Peptide A 20 nM. As for the experimental part:
TR-FRET Assay for BIR2 and BIR3
The peptides were labeled with the fluorescent tags FITC or TAMRA and Kd values were determined by fluorescence polarization assay. […] The peptide sequence was derivatized with biotin to provide […]-(ε-biotin)-OH 1:2 TFA as the substrate for the TR-FRET assay.
The XIAP protein sequence was obtained from the SWISS-PROT protein sequence database and the BIR2 and BIR3 domains were derived from that. The sequence of the BIR2 domain used for the TR-FRET assay is […].
Time-resolved fluorescence resonance energy transfer (TR-FRET) signals were measured 1 hour later at room temperature. Test compound potency was assessed at 10 serially diluted concentrations. Percentage of inhibition at each concentration was determined to generate an IC50 value for each test compound.
In general terms: In TR-FRET formats the signal depends on donor and acceptor labels being close together.

Another test concerns the target BIR3 domain of XIAP (Homo sapiens (Human), UniProt P98170). Put plainly: TR-FRET assay for BIR3: inhibition of binding of XIAP BIR3 domain to Peptide A (SMAC-derived peptide). Conditions: 6× His-tagged BIR3 domain (aa 241-356 of XIAP) 10 nM, Peptide A 20 nM.

Molecules are shown by their SMILES.

Chain of BIR3 domain of XIAP (P98170 other isoform, or with tags, fused parts or gaps): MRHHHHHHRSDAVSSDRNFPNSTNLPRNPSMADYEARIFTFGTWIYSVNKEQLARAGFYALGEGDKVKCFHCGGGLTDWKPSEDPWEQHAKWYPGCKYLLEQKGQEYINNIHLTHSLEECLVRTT
Chain of BIR2 domain of XIAP (P98170 other isoform, or with tags, fused parts or gaps, stated change not applied): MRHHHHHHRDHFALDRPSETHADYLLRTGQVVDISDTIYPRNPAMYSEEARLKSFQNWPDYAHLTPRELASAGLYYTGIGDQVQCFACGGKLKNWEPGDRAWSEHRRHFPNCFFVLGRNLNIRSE

Take `CN[C@@H](C)C(=O)N[C@H]1CN(C(=O)c2cncc(C(=O)N3C[C@H](NC(=O)[C@H](C)NC)C(=O)N(Cc4c(OC)ccc5cc(Br)ccc45)c4ccccc43)c2)c2ccccc2N(Cc2c(OC)ccc3cc(Br)ccc23)C1=O` [Ex 8, (2S)-N-[(3S)-5-[(6-Bromo-2-methoxy-1-naphthyl)methyl]-1-[5-[(3S)-5-[(6-bromo-2-methoxy-1-naphthyl)methyl]-3-[[(2S)-2-(methylamino)propanoyl]amino]-4-oxo-2,3-dihydro-1,5-benzodiazepine-1-carbonyl]pyridine-3-carbonyl]-4-oxo-2,3-dihydro-1,5-benzodiazepin-3-yl]-2-(methylamino)propanamide]: the concentration for half-maximal inhibition (IC50) (as a rule, the concentration at which inhibition is half-maximal) on BIR2 domain of XIAP is 1.32 nM; on BIR3 domain of XIAP it was > 5480 nM.

Turning to `CN[C@@H](C)C(=O)N[C@H]1CN(C(=O)c2ccc(C(=O)N3C[C@H](NC(=O)[C@H](C)NC)C(=O)N(Cc4c(OC)ccc5cc(Br)ccc45)c4ccccc43)c(C)c2)c2ccccc2N(Cc2c(OC)ccc3cc(Br)ccc23)C1=O` [Ex 10, (2S)-N-[(3S)-5-[(6-Bromo-2-methoxy-1-naphthyl)methyl]-1-[4-[(3S)-5-[(6-bromo-2-methoxy-1-naphthyl)methyl]-3-[[(2S)-2-(methylamino)propanoyl]amino]-4-oxo-2,3-dihydro-1,5-benzodiazepine-1-carbonyl]-3-methyl-benzoyl]-4-oxo-2,3-dihydro-1,5-benzodiazepin-3-yl]-2-(methylamino)propanamide], the IC50 is 1.38 nM on BIR2 domain of XIAP and > 5480 nM on BIR3 domain of XIAP.

In the case of `CN[C@@H](C)C(=O)N[C@H]1CN(C(=O)c2cc(C)c(C(=O)N3C[C@H](NC(=O)[C@H](C)N)C(=O)N(Cc4c(OC)ccc5cc(Br)ccc45)c4ccccc43)cc2C)c2ccccc2N(Cc2c(OC)ccc3cc(Br)ccc23)C1=O` [Ex 13, (2S)-2-Amino-N-[(3S)-5-[(6-bromo-2-methoxy-1-naphthyl)methyl]-1-[4-[(3S)-5-[(6-bromo-2-methoxy-1-naphthyl)methyl]-3-[[(2S)-2-(methylamino)propanoyl]amino]-4-oxo-2,3-dihydro-1,5-benzodiazepine-1-carbonyl]-2,5-dimethyl-benzoyl]-4-oxo-2,3-dihydro-1,5-benzodiazepin-3-yl]propanamide], the IC50 at BIR2 domain of XIAP is 0.801 nM; on BIR3 domain of XIAP, > 5480 nM.

For `CN[C@@H](C)C(=O)N[C@H]1CN(C(=O)CCCCCCC(=O)N2C[C@H](NC(=O)[C@H](C)NC)C(=O)N(Cc3c(OC)ccc4cc(Br)ccc34)c3ccccc32)c2ccccc2N(Cc2c(OC)ccc3cc(Br)ccc23)C1=O` [Ex 18, (2S)-N-[(3S)-5-[(6-Bromo-2-methoxy-1-naphthyl)methyl]-1-[8-[(3S)-5-[(6-bromo-2-methoxy-1-naphthyl)methyl]-3-[[(2S)-2-(methylamino)propanoyl]amino]-4-oxo-2,3-dihydro-1,5-benzodiazepin-1-yl]-8-oxo-octanoyl]-4-oxo-2,3-dihydro-1,5-benzodiazepin-3-yl]-2-(methylamino)propanamide], the results for the IC50 at BIR2 domain of XIAP and on BIR3 domain of XIAP were 0.871 nM and > 5480 nM, respectively.

Source of the values: patent US9409888B2, “Dimeric compounds” (priority 2012, dated 2016).
